{
  "source": "patent US6500405B1",
  "about": "“Use of certain amides as probes for detection of antitubulin activity and resistance monitoring” (Dow AgroSciences LLC, priority 1996, dated 2002)",
  "key": {"[1]": {"molecular_target": "tubulin in Phytophthora capsici (Phytophthora capsici, UniProt A4ZYP2)", "sequence (A4ZYP2 entry or part of it)": "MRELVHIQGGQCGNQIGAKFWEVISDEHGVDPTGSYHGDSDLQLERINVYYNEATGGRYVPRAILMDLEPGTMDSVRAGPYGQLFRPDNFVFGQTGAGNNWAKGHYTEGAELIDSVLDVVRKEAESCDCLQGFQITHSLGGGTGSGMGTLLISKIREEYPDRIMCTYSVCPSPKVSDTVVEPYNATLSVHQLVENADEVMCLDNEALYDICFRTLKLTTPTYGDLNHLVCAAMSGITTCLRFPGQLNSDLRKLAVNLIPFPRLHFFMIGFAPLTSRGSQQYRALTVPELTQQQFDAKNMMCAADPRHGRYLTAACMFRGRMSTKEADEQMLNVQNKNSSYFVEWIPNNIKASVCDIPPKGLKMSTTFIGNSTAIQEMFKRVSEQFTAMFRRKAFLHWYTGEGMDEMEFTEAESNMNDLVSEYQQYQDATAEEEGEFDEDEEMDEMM", "sequence (A4ZYP4 entry or part of it, further chain)": "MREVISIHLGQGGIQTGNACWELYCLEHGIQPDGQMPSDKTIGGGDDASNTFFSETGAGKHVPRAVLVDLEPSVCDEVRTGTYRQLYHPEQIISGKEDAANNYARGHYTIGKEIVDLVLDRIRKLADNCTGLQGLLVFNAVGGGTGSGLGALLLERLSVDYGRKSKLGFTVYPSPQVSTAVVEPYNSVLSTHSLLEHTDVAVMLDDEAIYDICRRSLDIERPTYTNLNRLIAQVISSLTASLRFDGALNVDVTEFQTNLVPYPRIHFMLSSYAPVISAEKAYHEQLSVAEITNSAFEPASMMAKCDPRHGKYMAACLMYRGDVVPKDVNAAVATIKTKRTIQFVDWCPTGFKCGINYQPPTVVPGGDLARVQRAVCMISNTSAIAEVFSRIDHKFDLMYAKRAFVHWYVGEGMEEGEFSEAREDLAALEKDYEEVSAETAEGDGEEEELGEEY", "experiment": "Binding assay, tritiated compound 1 as probe, germinated zoospore cysts of Phytophthora capsici", "conditions": "1 hour preincubation; for IC50: 20 minutes with tritiated compound 1, read-out: IC50 (concentration required to inhibit binding of the radioligand by 50%) (converted)", "experimental": "The effect of zarilamide and compounds 7, 8, 16, 19, 23 and 27 described in Table 1 on binding of compound 1 to tubulin in Phytophthora capsici is shown in this example.\nZoospores of P. capsici were prepared as follows. Petri plates, 9 cm in diameter, containing 15 ml of V-8 agar were inoculated with a mycelial plug of P. capsici and incubated for 4 days in the dark at 25° C., then placed under continuous fluorescent light for 3 days to induce sporulation. To induce zoospore release, 15 ml of sterile water was added to each plate. The plates were incubated at room temperature for 10 minutes, followed by 20 minutes at 4° C., and finally returned to room temperature for 15 minutes. The zoospore-containing fluid was then removed from each plate and adjusted to a density of 5×10^5 zoospores per ml. Assay tubes containing germinated zoospores cysts were prepared by adding 100 μl of zoospore suspension to 400 μl of asparagine-sucrose medium in 16×1.25 cm polypropylene tubes, which were then loosely capped and incubated on a gyrotary shaker at 120 rpm for 24 hours at 26° C.\nTubes containing germinated zoospore cysts then received 2.5 μl of DMSO (control) or 2.5 μl of test compound dissolved in DMSO. Each compound was tested at a series of concentrations. Tubes were incubated with shaking at 26° C. for 1 hour, then 2.5 μl of a 40 μM solution of tritium-labeled compound 1 in DMSO were added. Vials were incubated with shaking at 26° C. for 20 minutes, then binding of the radioligand was stopped by adding 1.5 ml of ice-cold unlabeled 133 μM compound 1, and transferring the tubes to an ice bath. Following centrifugation at 3,400 rpm for 3 minutes, the supernatant was discarded and the pelleted cells were resuspended in 2 ml of ice-cold 10% trichloroacetic acid. Samples were kept for 1 hour in an ice bath, centrifuged again, and the cells resuspended in 2 ml of ice-cold ethanol. After incubation for a further 1 hour in an ice-bath, an additional 4 ml of ice-cold ethanol was added to each tube and the cells were collected by filtration on glass fiber filters in a Brandell cell harvester (Brandel Biomedical Research and Development Laboratories, Inc., Gaithersburg, Md.), and washed twice with 4 ml of ice-cold ethanol. The filters with washed cells were transferred to scintillation vials and 0.1 ml of water was added followed by 1 ml of Protosol™ (Dupont NEN Research Products). The vials were incubated at 60° C. for 30 minutes and cooled to room temperature. Ten ml of Econofluor™ scintillation fluid (Dupont NEN Research Products) was added, and the samples were counted in a scintillation counter to determine the amount of bound radioactivity. IC50 values for each test compound (defined as the concentration required to inhibit binding of the radioligand by 50% as compared to controls lacking the test compound) were determined from dose-response curves and are presented in Table 9."}, "[2]": {"system": "tubulin in tobacco suspension-cultured cells", "experiment": "Whole cell binding assay, tritiated compound 1 as probe, tobacco suspension-cultured cells", "conditions": "for Binding of radioligand (% control): 2 hours preincubation, 20 minutes with tritiated compound 1; for Effect on binding of the radioligand (in words): tobacco cells, tritiated compound 1", "experimental": "The effects of various antitubulin compounds from different chemical classes on binding of compound 1 to tubulin in tobacco suspension-cultured cells is shown in this example.\nAliquots (2 ml) of suspension-cultured tobacco cells grown as described in Example 2 were added to 25 ml capacity glass vials. Each vial then received 5 μl of DMSO (control) or 5 μl of an antitubulin compound dissolved in DMSO. Vials were incubated with shaking at 27° C. for 2 hours, then 5 μl of a 100 μM solution of tritium-labeled compound 1 in DMSO was added. Vials were incubated with shaking at 27° C. for 20 minutes, then binding of the radioligand was stopped by adding 5 μl of unlabeled 40 mM compound 1. The samples were incubated with shaking at 27° C. for a further 20 minutes, then transferred to 15 ml capacity polypropylene centrifuge tubes in an ice bath. Each vial was rinsed with 2 ml ice-cold growth medium (described in example 2) and the rinse solution was then added to the rest of the sample. Following centrifugation at 4° C. for 3 minutes at 2,500 rpm the supernatant was discarded and the pelleted cells were resuspended in 4 ml of ice-cold 10% trichloroacetic acid. Samples were kept for 1 hour in an ice bath, centrifuged again, and the cells resuspended in 4 ml of ice-cold ethanol. After incubation for a further 1 hour in an ice-bath the cells were collected by filtration on glass fiber filters and washed twice with 10 ml of ice-cold ethanol. The filters with washed cells were transferred to scintillation vials, 10 ml of Hydrofluor™ scintillation fluid (National Diagnostics, Manville, N.J.) was added to each, and the samples were counted in a scintillation counter to determine the amount of bound radioactivity. The effects of different antitubulin compounds on binding of the radioligand are presented in Table 7 with the amounts of radioligand bound in the presence of each antitubulin compound expressed as a percentage of the amount of radioligand bound in the DMSO control."}, "[3]": {"system": "tubulin in colon cancer cell line HCT-116", "experiment": "Whole cell binding assay, tritiated S-enantiomer of compound 2 as probe, colon cancer cell line HCT-116", "conditions": "for Binding of radioligand (% control): HCT-116, 1 hour preincubation, 1 hour with radioligand", "experimental": "Effect of antitubulin compounds on binding of the tritiated S-enantiomer of compound 2 to tubulin in a whole cell binding assay using the colon cancer cell line HCT-116 is shown by this example.\nThe colon cancer cell line HCT-116 (obtained from the American Type Culture Collection) was cultured in 75 cm^2 flasks containing McCoy's 5a Modified Medium with 10% heat-inactivated fetal bovine serum, 50 U/ml of penicillin G and 50 U/ml of streptomycin sulfate. A cell suspension was prepared by trypsinization of the culture, and adjusted to a density of 10^6 cells/ml by dilution into incomplete medium (medium lacking serum, penicillin G and streptomycin). Aliquots (150 μl) of cell suspension were added to wells of 96-well glass fiber filter plates (Millipore Multiscreen® plates, 1 μm glass fiber, Type B). Wells then received 30 μl of a solution of the test antitubulin compound in incomplete medium/DMSO mixture (8.5:1, v/v) or 30 μl of the incomplete medium/DMSO mixture alone (control). After mixing, the plates were incubated at 37° C. for 1 hour, then 25 μl of 0.8 μM tritium-labeled S-enantiomer of compound 2 was added to each well. After mixing, the plates were incubated at 37° C. for 1 hour, then binding of the radioligand to tubulin was stopped by adding 50 μl of 100 μM unlabeled compound 2. The fluid was removed from the plate by vacuum filtration through the glass fiber, then 100 μl of ice-cold 10% trichloroacetic acid was added to each well. The plates were incubated for 1 h at 4° C., then the fluid was removed by filtration. Ice-cold ethanol (250 μl) was added to each well, the plates incubated for 1 h at 4° C., then the ethanol was removed by filtration. Wells were washed 4 more times with 250 μl of ice-cold ethanol. After drying the plates at 37° C. for 20 min, the glass fiber filters were punched out of the wells into scintillation vials, 5 ml of scintillation fluid was added to each vial, and the samples were counted in a scintillation counter to determine the amount of bound radioactivity. The effects of different antitubulin compounds on binding of the radioligand are presented in Table 11 with the amounts of radioligand bound in the presence of each antitubulin compound expressed as a percentage of the amount of radioligand bound in the control."}, "[4]": {"system": "tubulin in Phytophthora capsici mycelium", "experiment": "Whole cell binding assay, tritiated compound 1 as probe, Phytophthora capsici mycelium", "conditions": "1 hour preincubation, 20 min with tritiated compound 1", "experimental": "The effect of paclitaxel on binding of compound 1 to tubulin in Phytophthora capsici is shown in this example.\nA liquid mycelial shake culture of P. capsici in asparagine-sucrose medium was used to prepare a homogeneous suspension of fungal material for binding assays. Asparagine-sucrose medium (100 ml) was inoculated with mycelial plugs cut from cultures grown on V-8 agar, and incubated at 26° C. on a gyrotary shaker for 48 hours. The culture was homogenized in a blender, and 30 ml of the homogenate subcultured into 100 ml of fresh medium, which was then incubated at 26° C. on a gyrotary shaker for 17 hours. The resulting mycelium was recovered from the medium by centrifugation and resuspended in 1170 ml of fresh medium. Aliquots (2 ml) of this suspension were added to 25 ml capacity glass vials. Each vial then received 5 μl of DMSO (control) or 5 μl of paclitaxel dissolved in DMSO. Vials were incubated with shaking at 26° C. for 1 hour, then 5 μl of a 100 μM solution of tritium-labeled compound 1 in DMSO was added. Vials were incubated with shaking at 26° C. for 20 min, then binding of the radioligand was stopped by adding 5 μl of unlabeled 40 mM compound 1. The samples were incubated with shaking at 27° C. for a further 20 minutes, then transferred to 15 ml capacity centrifuge tubes in an ice bath. Each vial was rinsed with 2 ml ice-cold medium which was then added to the rest of the sample. Following centrifugation at 4° C. for 5 minutes at 3,400 rpm, the supernatant was discarded and the pelleted cells were resuspended in 4 ml of ice-cold 10% trichloroacetic acid. Samples were kept for 1 hour in an ice bath, centrifuged again, and the cells resuspended in 4 ml of ice-cold ethanol. After incubation for a further 2 hours in an ice-bath the cells were collected by filtration on glass fiber filters and washed twice with 10 ml of ice-cold ethanol. The filters with washed cells were transferred to scintillation vials, 10 ml of Hydrofluor™ scintillation fluid was added, and the samples were counted in a scintillation counter to determine the amount of bound radioactivity. The effect of paclitaxel at various concentrations on binding of the radioligand are presented in Table 8, with the amounts of radioligand bound in the presence of paclitaxel expressed as a percentage of the amount of radioligand bound in the DMSO control."}},
  "data": [
    {"molecule": "CCOC(C#N)NC(=O)c1ccc(Cl)cc1", "note": "(stereo not drawn) [Zarilamide, zarilamide]", "values": [
      {"measurement": "IC50 (concentration required to inhibit binding of the radioligand by 50%)", "setting": "[1]; 20 minutes with tritiated compound 1", "result": 7.02, "unit": "µg/mL"}
    ]},
    {"molecule": "CCC(C)(NC(=O)c1cc(Cl)c(Cl)c(Cl)c1)C(=O)CCl", "note": "(stereo not drawn) [Compound 23]", "values": [
      {"measurement": "IC50", "setting": "[1]", "result": 168, "unit": "nM"}
    ]},
    {"molecule": "CCC(C)(NC(=O)c1cccc(C=NOC)c1)C(=O)CCl", "note": "(stereo not drawn) [Compound 16]", "values": [
      {"measurement": "IC50", "setting": "[1]", "result": 3760, "unit": "nM"}
    ]},
    {"molecule": "CC(C)OC(=O)Nc1cccc(Cl)c1", "note": "[Chlorpropham, chlorpropham]", "values": [
      {"measurement": "Binding of radioligand (% control)", "setting": "[2]; antitubulin compound 100 μM", "result": 29.1, "unit": "% control"},
      {"measurement": "Effect on binding of the radioligand (in words)", "setting": "[2]", "result": "reduced binding of the radioligand"}
    ]},
    {"molecule": "CC(C)(NC(=O)c1cc(Cl)cc(Cl)c1)C(=O)CCl", "note": "[Compound 19]", "values": [
      {"measurement": "IC50", "setting": "[1]", "result": 810, "unit": "nM"}
    ]},
    {"molecule": "CC(=O)O[C@H]1C(=O)[C@@]2(C)[C@H]([C@H](OC(=O)c3ccccc3)[C@]3(O)C[C@H](OC(=O)[C@H](O)[C@@H](NC(=O)c4ccccc4)c4ccccc4)C(C)=C1C3(C)C)[C@]1(OC(C)=O)CO[C@@H]1C[C@@H]2O", "note": "[Paclitaxel, paclitaxel]", "values": [
      {"measurement": "Binding of radioligand (% control)", "setting": "[3]; 0.1 μM", "result": 37, "unit": "% control"},
      {"measurement": "Binding of radioligand (% control)", "setting": "[3]; 1 μM", "result": 19, "unit": "% control"},
      {"measurement": "Binding of radioligand (% control)", "setting": "[3]; 10 μM", "result": 6, "unit": "% control"},
      {"measurement": "Binding of radioligand (% control)", "setting": "[3]; 100 μM", "result": 4, "unit": "% control"},
      {"measurement": "Effect on binding of the radioligand (in words)", "setting": "[3]; HCT-116, tritiated S-enantiomer of compound 2", "result": "reduced binding of the radioligand"},
      {"measurement": "Binding of radioligand (% control)", "setting": "[4]; 0.004 μM", "result": 84.5, "unit": "% control"},
      {"measurement": "Binding of radioligand (% control)", "setting": "[4]; 0.02 μM", "result": 54.6, "unit": "% control"},
      {"measurement": "Binding of radioligand (% control)", "setting": "[4]; 0.1 μM", "result": 34.6, "unit": "% control"},
      {"measurement": "Binding of radioligand (% control)", "setting": "[4]; 0.5 μM", "result": 23.6, "unit": "% control"},
      {"measurement": "Binding of radioligand (% control)", "setting": "[2]; antitubulin compound 25 μM", "result": 50.3, "unit": "% control"},
      {"measurement": "Effect on binding of the radioligand (in words)", "setting": "[2]", "result": "reduced binding of the radioligand"}
    ]},
    {"molecule": "CCC(C)(NC(=O)c1cc(C)cc(Br)c1)C(=O)CCl", "note": "(stereo not drawn) [Compound 8]", "values": [
      {"measurement": "IC50", "setting": "[1]", "result": 721, "unit": "nM"}
    ]},
    {"molecule": "CCC(C)(NC(=O)c1cc(Cl)cc(C=NOC)c1)C(=O)CCl", "note": "(stereo not drawn) [Compound 7]", "values": [
      {"measurement": "IC50", "setting": "[1]", "result": 2840, "unit": "nM"}
    ]},
    {"molecule": "C#CC(C)(C)NC(=O)c1cc(Cl)cc(Cl)c1", "note": "[Pronamide, pronamide]", "values": [
      {"measurement": "Binding of radioligand (% control)", "setting": "[2]; antitubulin compound 100 μM", "result": 68.7, "unit": "% control"},
      {"measurement": "Effect on binding of the radioligand (in words)", "setting": "[2]", "result": "reduced binding of the radioligand"}
    ]},
    {"molecule": "CC(C)C(C)(NC(=O)c1cc(Cl)cc(Cl)c1)C(=O)CCl", "note": "(stereo not drawn) [Compound 27]", "values": [
      {"measurement": "IC50", "setting": "[1]", "result": 5440, "unit": "nM"}
    ]},
    {"molecule": "CCCN(CCC)c1c([N+](=O)[O-])cc(C(F)(F)F)cc1[N+](=O)[O-]", "note": "[Trifluralin, trifluralin]", "values": [
      {"measurement": "Binding of radioligand (% control)", "setting": "[2]; antitubulin compound 100 μM", "result": 129.0, "unit": "% control"},
      {"measurement": "Effect on binding of the radioligand (in words)", "setting": "[2]", "result": "increased binding of the radioligand"}
    ]}
  ]
}
